SMILES strings stand for the structures. Structures can show the parent of a compound that is named as a salt.

T1 sequence (P25103 whole entry): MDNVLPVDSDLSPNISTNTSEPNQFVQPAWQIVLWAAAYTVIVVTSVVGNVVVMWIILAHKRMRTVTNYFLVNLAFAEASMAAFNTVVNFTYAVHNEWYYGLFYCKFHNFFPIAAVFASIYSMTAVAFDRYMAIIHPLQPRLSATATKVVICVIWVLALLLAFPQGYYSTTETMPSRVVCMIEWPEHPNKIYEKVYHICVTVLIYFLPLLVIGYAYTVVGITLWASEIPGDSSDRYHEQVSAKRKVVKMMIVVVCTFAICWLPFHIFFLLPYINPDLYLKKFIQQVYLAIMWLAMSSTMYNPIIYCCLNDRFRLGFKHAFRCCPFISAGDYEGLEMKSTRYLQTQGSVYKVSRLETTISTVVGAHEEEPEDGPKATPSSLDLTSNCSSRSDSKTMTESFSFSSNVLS

The test concerns the target T1, human NK1 receptor (Homo sapiens, UniProt P25103).
T1 construct: expressed in transfected cells; host or cells: CHO cells infected with the Semliki virus expression system; membrane suspension used
In words: [3H]substance P binding at human NK1 receptors in CHO cells. To be noted: affinity to the NK-1 receptor; [3H]substance P 0.6 nM displacement, CHO cell membranes, 60 min at room temperature. Here is the method: The affinity of test compounds for the NK1 receptor was evaluated at human NK1 receptors in CHO cells infected with the human NK1 receptor (using the Semliki virus expression system) and radiolabelled with [^3H]substance P (final concentration 0.6 nM). Binding assays were performed in HEPES buffer (50 mM, pH 7.4) containing BSA (0.04%) leupeptin (8 μg/ml), MnCl2 (3 mM) and phosphoramidon (2 μM). Binding assays consisted of 250 μl of membrane suspension (1.25×10^5 cells/assay tube), […] of buffer of displacing agent and 125 μl of [^3H]substance P. Displacement curves were determined with at least seven concentrations of the compound. The assay tubes were incubated for 60 min at room temperature after which time the tube contents were rapidly filtered under vacuum through GF/C filters presoaked for 60 min with PEI (0.3%) with 2×2 ml washes of HEPES buffer (50 mM, pH 7.4). The radioactivity retained on the filters was measured by scintillation counting. All assays were performed in triplicate in at least 2 separate experiments.
Take `O=C1NCC(c2cccc(Cl)c2)C2(CCN(C(=O)c3cc(C(F)(F)F)cc(C(F)(F)F)c3)CC2)O1` (racemic) [Example 1, (5RS)-9-(3,5-bis-trifluoromethyl-benzoyl)-5-(3-chloro-phenyl)-1-oxa-3,9-diaza-spiro[5.5]undecan-2-one]: affinity was put at a Ki of 5.13 nM. To `O=C1NCC(c2ccc(F)c(F)c2)C2(CCN(C(=O)c3cc(C(F)(F)F)cc(C(F)(F)F)c3)CC2)O1` (racemic) [Example 2, (5RS)-9-(3,5-bis-trifluoromethyl-benzoyl)-5-(3,4-difluoro-phenyl)-1-oxa-3,9-diaza-spiro[5.5]undecan-2-one] belongs 1.7 nM; to `O=C1NCC(c2ccc(Cl)c(Cl)c2)C2(CCN(C(=O)c3cc(C(F)(F)F)cc(C(F)(F)F)c3)CC2)O1` (racemic) [Example 3, (5RS)-9-(3,5-bis-trifluoromethyl-benzoyl)-5-(3,4-dichloro-phenyl)-1-oxa-3,9-diaza-spiro[5.5]undecan-2-one], 2.63 nM; to `O=C1NCC(c2ccccc2)C2(CCN(C(=O)c3cc(C(F)(F)F)cc(C(F)(F)F)c3)CC2)O1` (racemic) [Example 4, (5RS)-9-(3,5-bis-trifluoromethyl-benzoyl)-5-phenyl-1-oxa-3,9-diaza-spiro[5.5]undecan-2-one], 5.13 nM. To `O=C1NCC(c2cccc(F)c2F)C2(CCN(C(=O)c3cc(C(F)(F)F)cc(C(F)(F)F)c3)CC2)O1` (racemic) [Example 5, (5RS)-9-(3,5-bis-trifluoromethyl-benzoyl)-5-(2,3-difluoro-phenyl)-1-oxa-3,9-diaza-spiro[5.5]undecan-2-one] belongs 8.51 nM; to `O=C1NCC(c2cc(F)ccc2F)C2(CCN(C(=O)c3cc(C(F)(F)F)cc(C(F)(F)F)c3)CC2)O1` (racemic) [Example 6, (5RS)-9-(3,5-bis-trifluoromethyl-benzoyl)-5-(2,5-difluoro-phenyl)-1-oxa-3,9-diaza-spiro[5.5]undecan-2-one], 9.77 nM; to `Cc1ccccc1C1CNC(=O)OC12CCN(C(=O)c1cc(C(F)(F)F)cc(C(F)(F)F)c1)CC2` (racemic) [Example 7, (5RS)-9-(3,5-bis-trifluoromethyl-benzoyl)-5-o-tolyl-1-oxa-3,9-diaza-spiro[5.5]undecan-2-one], 10.7 nM. Next, `O=C1NCC(c2ccc(Cl)cc2)C2(CCN(C(=O)c3cc(C(F)(F)F)cc(C(F)(F)F)c3)CC2)O1` (racemic) [Example 8, (5RS)-9-(3,5-bis-trifluoromethyl-benzoyl)-5-(4-chloro-phenyl)-1-oxa-3,9-diaza-spiro[5.5]undecan-2-one]: 11 nM; `Cc1ccc(C2CNC(=O)OC23CCN(C(=O)c2cc(C(F)(F)F)cc(C(F)(F)F)c2)CC3)cc1C` (racemic) [Example 9, (5RS)-9-(3,5-bis-trifluoromethyl-benzoyl)-5-(3,4-dimethyl-phenyl)-1-oxa-3,9-diaza-spiro[5.5]undecan-2-one]: 12.6 nM; `COc1cccc(C2CNC(=O)OC23CCN(C(=O)c2cc(C(F)(F)F)cc(C(F)(F)F)c2)CC3)c1` (racemic) [Example 10, (5RS)-9-(3,5-bis-trifluoromethyl-benzoyl)-5-(3-methoxy-phenyl)-1-oxa-3,9-diaza-spiro[5.5]undecan-2-one]: 14.8 nM. Take `O=C1NCC(c2ccccc2Cl)C2(CCN(C(=O)c3cc(C(F)(F)F)cc(C(F)(F)F)c3)CC2)O1` (racemic) [Example 11, (5RS)-9-(3,5-bis-trifluoromethyl-benzoyl)-5-(2-chloro-phenyl)-1-oxa-3,9-diaza-spiro[5.5]undecan-2-one]: the inhibition constant (Ki) is 23.4 nM. To `CN1CCC(N2CC(c3ccccc3)C3(CCN(C(=O)c4cc(C(F)(F)F)cc(C(F)(F)F)c4)CC3)OC2=O)CC1` (racemic) [Example 12, (5RS)-9-(3,5-bis-trifluoromethyl-benzoyl)-3-(1-methyl-piperidin-4-yl)-5-phenyl-1-oxa-3,9-diaza-spiro[5.5]undecan-2-one] belongs 3.89 nM; to `O=C(c1cc(C(F)(F)F)cc(C(F)(F)F)c1)N1CCC2(CC1)OC(=O)N(C1CCOCC1)CC2c1ccccc1` (racemic) [Example 13, (5RS)-9-(3,5-bis-trifluoromethyl-benzoyl)-5-phenyl-3-(tetrahydro-pyran-4-yl)-1-oxa-3,9-diaza-spiro[5.5]undecan-2-one], 19.1 nM. To `CN(C)C(=O)CN1CC(c2ccccc2)C2(CCN(C(=O)c3cc(C(F)(F)F)cc(C(F)(F)F)c3)CC2)OC1=O` (racemic) [Example 14, (5RS)-2-[9-(3,5-bis-trifluoromethyl-benzoyl)-2-oxo-5-phenyl-1-oxa-3,9-diaza-spiro[5.5]undec-3-yl]-N,N-dimethyl-acetamide] belongs 6.61 nM; to `O=C1OC2(CCN(C(=O)c3cc(C(F)(F)F)cc(C(F)(F)F)c3)CC2)C(c2ccc(F)c(F)c2)CN1CC(F)F` (racemic) [Example 15, (5RS)-9-(3,5-bis-trifluoromethyl-benzoyl)-3-(2,2-difluoro-ethyl)-5-(3,4-difluoro-phenyl)-1-oxa-3,9-diaza-spiro[5.5]undecan-2-one], 11.5 nM. To `O=C1OC2(CCN(C(=O)c3cc(C(F)(F)F)cc(C(F)(F)F)c3)CC2)C(c2ccccc2)CN1Cc1cccnc1` (racemic) [Example 16, (5RS)-9-(3,5-bis-trifluoromethyl-benzoyl)-5-phenyl-3-pyridin-3-ylmethyl-1-oxa-3,9-diaza-spiro[5.5]undecan-2-one] belongs 6.17 nM; to `CN1CC(c2ccccc2)C2(CCN(C(=O)c3cc(C(F)(F)F)cc(C(F)(F)F)c3)CC2)OC1=O` (racemic) [Example 18, (5RS)-9-(3,5-bis-trifluoromethyl-benzoyl)-3-methyl-5-phenyl-1-oxa-3,9-diaza-spiro[5.5]undecan-2-one], 15.5 nM; to `COCCN1CC(c2ccc(F)c(F)c2)C2(CCN(C(=O)c3cc(C(F)(F)F)cc(C(F)(F)F)c3)CC2)OC1=O` (racemic) [Example 19, (5RS)-9-(3,5-bis-trifluoromethyl-benzoyl)-5-(3,4-difluoro-phenyl)-3-(2-methoxy-ethyl)-1-oxa-3,9-diaza-spiro[5.5]undecan-2-one], 19.1 nM. `CN1CC(c2ccc(F)c(F)c2)C2(CCN(C(=O)c3cc(C(F)(F)F)cc(C(F)(F)F)c3)CC2)OC1=O` (racemic) [Example 20, (5RS)-9-(3,5-bis-trifluoromethyl-benzoyl)-5-(3,4-difluoro-phenyl)-3-methyl-1-oxa-3,9-diaza-spiro[5.5]undecan-2-one] gave an inhibition constant (Ki) of 30.9 nM. To `O=C1OC2(CCN(C(=O)c3cc(C(F)(F)F)cc(C(F)(F)F)c3)CC2)C(c2ccccc2)CN1CCCO` (racemic) [Example 21, (5RS)-9-(3,5-bis-trifluoromethyl-benzoyl)-3-(3-hydroxy-propyl)-5-phenyl-1-oxa-3,9-diaza-spiro[5.5]undecan-2-one] belongs 6.76 nM. `O=C1OC2(CCN(C(=O)c3cc(C(F)(F)F)cc(C(F)(F)F)c3)CC2)C(c2ccccc2)CN1CCO` (racemic) [Example 22, (5RS)-9-(3,5-bis-trifluoromethyl-benzoyl)-3-(2-hydroxy-ethyl)-5-phenyl-1-oxa-3,9-diaza-spiro[5.5]undecan-2-one] showed a Ki of 15.8 nM. To `O=C1OC2(CCN(C(=O)c3cc(C(F)(F)F)cc(C(F)(F)F)c3)CC2)C(c2ccccc2)CN1CCCN1CCCC1` (racemic) [Example 23, (5RS)-9-(3,5-bis-trifluoromethyl-benzoyl)-5-phenyl-3-(3-pyrrolidin-1-yl-propyl)-1-oxa-3,9-diaza-spiro[5.5]undecan-2-one] belongs 3.39 nM. In turn, `O=C1OC2(CCN(C(=O)c3cc(C(F)(F)F)cc(C(F)(F)F)c3)CC2)C(c2ccccc2)CN1CCCN1CCOCC1` (racemic) [Example 24, (5RS)-9-(3,5-bis-trifluoromethyl-benzoyl)-3-(3-morpholin-4-yl-propyl)-5-phenyl-1-oxa-3,9-diaza-spiro[5.5]undecan-2-one] had a Ki of 3.47 nM. The Ki values of the last two compounds are within 1.5-fold of each other. To `O=C1OC2(CCN(C(=O)c3cc(C(F)(F)F)cc(C(F)(F)F)c3)CC2)C(c2ccccc2)CN1CCCN1CCC(O)C1` (racemic) [Example 26, (5RS)-9-(3,5-bis-trifluoromethyl-benzoyl)-3-[3-(3-hydroxy-pyrrolidin-1-yl)-propyl]-5-phenyl-1-oxa-3,9-diaza-spiro[5.5]undecan-2-one] belongs 4.07 nM. Next, `CN(C)CCN1CC(c2ccccc2)C2(CCN(C(=O)c3cc(C(F)(F)F)cc(C(F)(F)F)c3)CC2)OC1=O` (racemic) [Example 28, (5RS)-9-(3,5-bis-trifluoromethyl-benzoyl)-3-(2-dimethylamino-ethyl)-5-phenyl-1-oxa-3,9-diaza-spiro[5.5]undecan-2-one hydrochloride]: 7.41 nM; `CN1CCN(CCCN2CC(c3ccccc3)C3(CCN(C(=O)c4cc(C(F)(F)F)cc(C(F)(F)F)c4)CC3)OC2=O)CC1` (racemic) [Example 29, (5RS)-9-(3,5-bis-trifluoromethyl-benzoyl)-3-[3-(4-methyl-piperazin-1-yl)-propyl]-5-phenyl-1-oxa-3,9-diaza-spiro[5.5]undecan-2-one]: 10.5 nM. Next, `O=C1OC2(CCN(C(=O)c3cc(C(F)(F)F)cc(C(F)(F)F)c3)CC2)C(c2ccccc2)CN1CCN1CCCC1` (racemic) [Example 30, (5RS)-9-(3,5-bis-trifluoromethyl-benzoyl)-5-phenyl-3-(2-pyrrolidin-1-yl-ethyl)-1-oxa-3,9-diaza-spiro[5.5]undecan-2-one; hydrochloride]: 11.5 nM.

The Ki is the equilibrium dissociation constant of an inhibitor or competing ligand from its target. A lower Ki goes with higher affinity.

Values taken from patent publication US6599900B2, “1-oxa-3,9-diaza-spiro[5,5]undecan-2-ones” (Syntex (U.S.A.) LLC, priority 2001, dated 2003).
